Laboratory results: BindingDB's records for doi:10.1016/s0960-894x(03)00792-3 (Eli Lilly, 2003)

These compounds were tested against cAMP-dependent protein kinase catalytic subunit alpha (Bos taurus, UniProt P00517) (assay: CDK Kinase Inhibition Assay). Conditions: 25 °C.

Structure (SMILES) | IC50
CN(C)CCCn1cc(C2=C(c3c[nH]c4ccccc34)C(=O)NC2=O)c2ccccc21 [2-[1-(3-dimethylaminopropyl)-indol-3-yl]-3-(indol-3-yl)maleimide] | > 20 µM
Cn1cc(C2=C(c3cn(C)c4ccccc34)C(=O)NC2=O)c2ccccc21 [3,4-bis(1-methyl-1H-indol-3-yl)-2,5-dihydro-1H-pyrrole-2,5-dione] | > 20 µM
O=C1NC(=O)c2c1c1c3ccccc3[nH]c1c1c2c2ccccc2n1CCCO [3-(3-hydroxypropyl)-3,13,23-triazahexacyclo[14.7.0.0^{2,10}.0^{4,9}.0^{11,15}.0^{17,22}]tricosa-1(16),2(10),4(9),5,7,11(15),17(22),18,20-nonaene-12,14-dione] | > 20 µM
Cn1cc(C2=C(c3cn(CC(O)CO)c4ccccc34)C(=O)NC2=O)c2ccccc21 (stereo unspecified) [3-[1-(2,3-dihydroxypropyl)-1H-indol-3-yl]-4-(1-methyl-1H-indol-3-yl)-2,5-dihydro-1H-pyrrole-2,5-dione] | > 20 µM
O=C1NC(=O)c2c1c1c3ccccc3[nH]c1c1[nH]c3ccccc3c21 [6,7,12,13-Tetrahydro-5,7-dioxo-5H-indolo[2,3-a]pyrrolo[3,4-c]carbazole] | > 20 µM

Now from value to compound:

IC50 | Structure (SMILES)
> 20 µM | Cn1c2ccccc2c2c3c(c4c5ccccc5[nH]c4c21)C(=O)NC3=O [3-methyl-3,13,23-triazahexacyclo[14.7.0.0^{2,10}.0^{4,9}.0^{11,15}.0^{17,22}]tricosa-1(16),2(10),4(9),5,7,11(15),17(22),18,20-nonaene-12,14-dione]
> 20 µM | COc1ccc2c(c1)[nH]c1c3[nH]c4cc(OC)ccc4c3c3c(c21)C(=O)NC3=O [6,20-dimethoxy-3,13,23-triazahexacyclo[14.7.0.0^{2,10}.0^{4,9}.0^{11,15}.0^{17,22}]tricosa-1(16),2(10),4(9),5,7,11(15),17(22),18,20-nonaene-12,14-dione]
> 20 µM | Cn1c2ccccc2c2c3c(c4c5ccc(Br)cc5[nH]c4c21)C(=O)NC3=O [indolocarbazole deriv. 4(f)]
> 20 µM | Cn1c2ccccc2c2c3c(c4c5ccc(F)cc5[nH]c4c21)C(=O)NC3=O [indolocarbazole deriv. 4(h)]

Each compound was assayed against Cyclin-dependent kinase 4/G1/S-specific cyclin-D1 (Homo sapiens, UniProt P11802) (assay: CDK Kinase Inhibition Assay). Conditions: pH 7; 22 °C.
Chain of Cyclin-dependent kinase 4/G1/S-specific cyclin-D1 (P11802 whole entry): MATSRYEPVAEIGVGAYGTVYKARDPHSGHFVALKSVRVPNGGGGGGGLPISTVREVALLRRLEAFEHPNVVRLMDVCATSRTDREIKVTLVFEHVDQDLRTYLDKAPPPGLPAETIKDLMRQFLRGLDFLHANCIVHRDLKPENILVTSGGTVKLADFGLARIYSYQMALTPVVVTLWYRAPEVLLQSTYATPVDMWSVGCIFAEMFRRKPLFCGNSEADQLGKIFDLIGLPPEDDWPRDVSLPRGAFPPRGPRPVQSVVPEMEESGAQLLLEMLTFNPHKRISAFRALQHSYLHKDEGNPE
Chain of Cyclin-dependent kinase 4/G1/S-specific cyclin-D1 (P24385 whole entry, further chain): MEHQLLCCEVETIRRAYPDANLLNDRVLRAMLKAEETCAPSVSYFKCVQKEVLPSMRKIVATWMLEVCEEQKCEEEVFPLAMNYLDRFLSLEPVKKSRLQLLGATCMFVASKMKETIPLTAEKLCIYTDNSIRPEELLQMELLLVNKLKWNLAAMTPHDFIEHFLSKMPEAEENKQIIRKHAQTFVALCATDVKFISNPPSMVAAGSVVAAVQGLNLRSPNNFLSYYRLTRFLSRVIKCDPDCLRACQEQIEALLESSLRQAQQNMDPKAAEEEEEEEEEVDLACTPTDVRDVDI

Structure (SMILES) | IC50
COC(=O)[C@@]1(O)C[C@H]2O[C@]1(C)n1c3ccccc3c3c4c(c5c6ccccc6n2c5c31)C(=O)NC4 | 0.03 µM
O=C1NC(=O)c2c1c1c3ccccc3n3c1c1c2c2ccccc2n1[C@H]1CC[C@@H]3O1 [28-oxa-4,14,19-triazaoctacyclo[12.11.2.1^{15,18}.0^{2,6}.0^{7,27}.0^{8,13}.0^{19,26}.0^{20,25}]octacosa-1(26),2(6),7(27),8(13),9,11,20(25),21,23-nonaene-3,5-dione] | 0.54 µM
